Measured values reported in US20240383904A1, “HETEROCYCLIC COMPOUNDS” (Hoffmann-La Roche Inc., priority 2021, published 2024).

Each molecule was assayed against T1, MAGL (Homo sapiens, UniProt Q99685) (assay: 2-AG assay: MAGL inhibitory activity by hydrolysis of 2-arachidonoylglycerol to arachidonic acid, followed by mass spectrometry). Details: 15 min preincubation, 30 min reaction at RT, 8 μM 2-arachidonoylglycerol.
T1 sequence (Q99685 1-303): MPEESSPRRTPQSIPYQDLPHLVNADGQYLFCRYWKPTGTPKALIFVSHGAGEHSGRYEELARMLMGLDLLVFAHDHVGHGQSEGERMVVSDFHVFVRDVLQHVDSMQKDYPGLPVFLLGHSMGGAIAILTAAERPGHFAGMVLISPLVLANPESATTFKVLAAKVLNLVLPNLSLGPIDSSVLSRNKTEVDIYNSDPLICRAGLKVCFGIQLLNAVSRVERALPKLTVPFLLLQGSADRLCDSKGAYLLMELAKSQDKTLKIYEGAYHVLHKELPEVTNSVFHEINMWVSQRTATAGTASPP
Assay type: biochemical

Row | Structure (SMILES) | IC50
1 | Cn1ncc(CC2CC3(C2)CN(C(=O)N2CC4(COC(=O)N4)C2)C3)c1C(F)(F)F [Example 352, 2-[6-[[1-methyl-5-(trifluoromethyl)pyrazol-4-yl]methyl]-2-azaspiro[3.3]heptane-2-carbonyl]-7-oxa-2,5-diazaspiro[3.4]octan-6-one] | 0.15 nM
2 | N#Cc1ccc(CC2CC3(C2)CN(C(=O)N2CC4(COC(=O)N4)C2)C3)cc1C(F)(F)F [Example 353] | 0.1 nM
3 | O=C1NC2(CO1)CN(C(=O)N1CC3(CC(Cc4ccc(C(F)(F)F)cn4)C3)C1)C2 [Example 354, 2-[6-[[5-(trifluoromethyl)-2-pyridyl]methyl]-2-azaspiro[3.3]heptane-2-carbonyl]-7-oxa-2,5-diazaspiro[3.4]octan-6-one] | 0.28 nM
4 | O=C1NC2(CO1)CN(C(=O)N1CC3(CC(Cc4ccc(OC(F)(F)F)nc4)C3)C1)C2 [Example 355, 2-[6-[[6-(trifluoromethoxy)-3-pyridyl]methyl]-2-azaspiro[3.3]heptane-2-carbonyl]-7-oxa-2,5-diazaspiro[3.4]octan-6-one] | 0.19 nM
5 | N=[S@](=O)(c1cccc(CC2CC3(C2)CN(C(=O)N2CC4(COC(=O)N4)C2)C3)c1)C(F)(F)F [Example 356, 2-[6-[3-(trifluoromethylsulfoni-midoyl)benzyl]-2-azaspiro[3.3]heptane-2-carbonyl]-7-oxa-2,5-diazaspiro[3.4]octan-6-one] | 0.2 nM
6 | N=[S@@](=O)(c1cccc(CC2CC3(C2)CN(C(=O)N2CC4(COC(=O)N4)C2)C3)c1)C(F)(F)F [Example 357, 2-[6-[3-(trifluoromethylsulfoni-midoyl)benzyl]-2-azaspiro[3.3]heptane-2-carbonyl]-7-oxa-2,5-diazaspiro[3.4]octan-6-one] | 0.15 nM
7 | N=[S@@](=O)(c1ccc(CC2CC3(C2)CN(C(=O)N2CC4(COC(=O)N4)C2)C3)cc1)C(F)(F)F [Example 358, 2-[6-[4-(trifluoromethylsulfoni-midoyl)benzyl]-2-azaspiro[3.3]heptane-2-carbonyl]-7-oxa-2,5-diazaspiro[3.4]octan-6-one] | 0.26 nM
8 | N=[S@](=O)(c1ccc(CC2CC3(C2)CN(C(=O)N2CC4(COC(=O)N4)C2)C3)cc1)C(F)(F)F [Example 359] | 0.32 nM
9 | O=C1CCC2(CN(C(=O)N3CC4(CC(Cc5cccc(S(=O)(=O)C(F)(F)F)c5)C4)C3)C2)N1 [Example 360, 2-[6-(3-triflylbenzyl)-2-azaspiro[3.3]heptane-2-carbonyl]-2,5-diazaspiro[3.4]octan-6-one] | 0.2 nM
10 | O=C1CCC2(CN(C(=O)N3CC4(CN(Cc5ccc(C(F)(F)F)cc5F)C4)C3)C2)N1 [Example 361, 2-[6-[2-fluoro-4-(trifluoromethyl)benzyl]-2,6-diazaspiro[3.3]heptane-2-carbonyl]-2,5-diazaspiro[3.4]octan-6-one] | 5.8 nM
11 | O=C1COCC2(CN(C(=O)N3CC4(CC(Cn5ncc(C(F)(F)F)n5)C4)C3)C2)N1 [Example 362, 2-[6-[[4-(trifluoromethyl)triazol-2-yl]methyl]-2-azaspiro[3.3]heptane-2-carbonyl]-8-oxa-2,5-diazaspiro[3.5]nonan-6-one] | 78.2 nM
12 | O=C1COCC2(CN(C(=O)N3CC4(CC(Cc5nc(C(F)(F)F)ns5)C4)C3)C2)N1 [Example 363, 2-[6-[[3-(trifluoromethyl)-1,2,4-thiadiazol-5-yl]methyl]-2-azaspiro[3.3]heptane-2-carbonyl]-8-oxa-2,5-diazaspiro[3.5]nonan-6-one] | 54.9 nM
13 | Cc1cc(C(F)F)n(CC2CC3(C2)CN(C(=O)N2CC4(COCC(=O)N4)C2)C3)n1 [Example 364, 2-[6-[[5-(difluoromethyl)-3-methyl-pyrazol-1-yl]methyl]-2-azaspiro[3.3]heptane-2-carbonyl]-8-oxa-2,5-diazaspiro[3.5]nonan-6-one] | 27.2 nM
14 | O=C1COCC2(CN(C(=O)N3CC4(CC(Cc5cnn(C(F)(F)F)c5)C4)C3)C2)N1 [Example 365, 2-[6-[[1-(trifluoromethyl)pyrazol-4-yl]methyl]-2-azaspiro[3.3]heptane-2-carbonyl]-8-oxa-2,5-diazaspiro[3.5]nonan-6-one] | 41 nM
15 | Cn1ncc(C(F)(F)F)c1CC1CC2(C1)CN(C(=O)N1CC3(COCC(=O)N3)C1)C2 [Example 366, 2-[6-[[2-methyl-4-(trifluoromethyl)pyrazol-3-yl]methyl]-2-azaspiro[3.3]heptane-2-carbonyl]-8-oxa-2,5-diazaspiro[3.5]nonan-6-one] | 22.4 nM
16 | Cn1nc(CC2CC3(C2)CN(C(=O)N2CC4(COCC(=O)N4)C2)C3)cc1C(F)(F)F [Example 367, 2-[6-[[1-methyl-5-(trifluoromethyl)pyrazol-3-yl]methyl]-2-azaspiro[3.3]heptane-2-carbonyl]-8-oxa-2,5-diazaspiro[3.5]nonan-6-one] | 2.88 nM
17 | Cn1ncc(CC2CC3(C2)CN(C(=O)N2CC4(COCC(=O)N4)C2)C3)c1C(F)(F)F [Example 368, 2-[6-[[1-methyl-5-(trifluoromethyl)pyrazol-4-yl]methyl]-2-azaspiro[3.3]heptane-2-carbonyl]-8-oxa-2,5-diazaspiro[3.5]nonan-6-one] | 4.11 nM
18 | O=C1COCC2(CN(C(=O)N3CC4(CC(Cc5nc(C(F)(F)F)cs5)C4)C3)C2)N1 [Example 369] | 23.1 nM
19 | Cn1cc(CC2CC3(C2)CN(C(=O)N2CC4(COCC(=O)N4)C2)C3)c(C(F)(F)F)n1 [Example 370, 2-[6-[[1-methyl-3-(trifluoromethyl)pyrazol-4-yl]methyl]-2-azaspiro[3.3]heptane-2-carbonyl]-8-oxa-2,5-diazaspiro[3.5]nonan-6-one] | 11.8 nM
20 | O=C1COCC2(CN(C(=O)N3CC4(CC(Cc5ncc(F)cc5F)C4)C3)C2)N1 [Example 371, 2-[6-[(3,5-difluoro-2-pyridyl)methyl]-2-azaspiro[3.3]heptane-2-carbonyl]-8-oxa-2,5-diazaspiro[3.5]nonan-6-one] | 9.04 nM
21 | O=C1COCC2(CN(C(=O)N3CC4(CN(Cc5ccc(C(F)(F)F)cc5F)C4)C3)C2)N1 [Example 372, 2-[6-[2-fluoro-4-(trifluoromethyl)benzyl]-2,6-diazaspiro[3.3]heptane-2-carbonyl]-8-oxa-2,5-diazaspiro[3.5]nonan-6-one] | 15.6 nM
22 | O=C1COCC2(CN(C(=O)N3CC4(CN(Cc5ccc(S(=O)(=O)C(F)(F)F)cc5F)C4)C3)C2)N1 [Example 373, 2-[6-(2-fluoro-4-triflyl-benzyl)-2,6-diazaspiro[3.3]heptane-2-carbonyl]-8-oxa-2,5-diazaspiro[3.5]nonan-6-one] | 59.2 nM
23 | CC(C)(C)c1coc(CN2CC3(C2)CN(C(=O)N2CC4(CCC(=O)N4)C2)C3)n1 [Example 374, 2-[6-[(4-tert-butyloxazol-2-yl)methyl]-2,6-diazaspiro[3.3]heptane-2-carbonyl]-2,5-diazaspiro[3.4]octan-6-one] | 88.7 nM
24 | O=C1CCC2(CN(C(=O)N3CC4(CN(Cc5ccc[nH]c5=O)C4)C3)C2)N1 [Example 375, 2-[6-[(2-keto-1H-pyridin-3-yl)methyl]-2,6-diazaspiro[3.3]heptane-2-carbonyl]-2,5-diazaspiro[3.4]octna-6-one] | 1850 nM
